{"source": "ChEMBL document CHEMBL5120922", "about": "“Discovery, Optimization, and Evaluation of Potent and Selective PI3Kδ-γ Dual Inhibitors for the Treatment of B-cell Malignancies” (J Med Chem, 2022)", "key": {"[1]": {"tested_on": "SU-DHL-6", "assay": "Antiproliferative activity against human SU-DHL-6 cells assessed as cell growth inhibition measured after 72 hrs by MTT assay", "assay_type": "functional, cell-based", "conditions": "SU-DHL-6, 72 h"}, "[2]": {"assay": "Cmax in Sprague-Dawley rat at 5 mg/kg, po measured upto 24 hrs by LC-MS/MS analysis", "assay_type": "ADME, organism-based", "parameters": "dose 5 mg/kg, time < 24 hrs, route po", "conditions": "in vivo"}, "[3]": {"assay": "Cmax in Sprague-Dawley rat at 10 mg/kg, po measured upto 24 hrs by LC-MS/MS analysis", "assay_type": "ADME, organism-based", "parameters": "dose 10 mg/kg, time < 24 hrs, route po", "conditions": "in vivo"}, "[4]": {"assay": "Tmax in Sprague-Dawley rat at 5 mg/kg, po measured upto 24 hrs by LC-MS/MS analysis", "assay_type": "ADME, organism-based", "conditions": "in vivo"}, "[5]": {"assay": "Tmax in Sprague-Dawley rat at 5 mg/kg, iv measured upto 24 hrs by LC-MS/MS analysis", "assay_type": "ADME, organism-based", "conditions": "in vivo"}, "[6]": {"assay": "AUC(0 to t) in Sprague-Dawley rat at 5 mg/kg, po measured upto 24 hrs by LC-MS/MS analysis", "assay_type": "ADME, organism-based", "parameters": "dose 5 mg/kg, time < 24 hrs, route po", "conditions": "in vivo"}, "[7]": {"assay": "AUC(0 to t) in Sprague-Dawley rat at 5 mg/kg, iv measured upto 24 hrs by LC-MS/MS analysis", "assay_type": "ADME, organism-based", "parameters": "time < 24 hrs, dose 5 mg/kg, route iv", "conditions": "in vivo"}, "[8]": {"assay": "AUC(0 to t) in Sprague-Dawley rat at 10 mg/kg, po measured upto 24 hrs by LC-MS/MS analysis", "assay_type": "ADME, organism-based", "parameters": "dose 10 mg/kg, time < 24 hrs, route po", "conditions": "in vivo"}, "[9]": {"assay": "Half life in Sprague-Dawley rat at 5 mg/kg, po measured upto 24 hrs by LC-MS/MS analysis", "assay_type": "ADME, organism-based", "conditions": "in vivo"}, "[10]": {"assay": "Clearance in Sprague-Dawley rat at 5 mg/kg, po measured upto 24 hrs by LC-MS/MS analysis", "assay_type": "ADME, organism-based", "conditions": "in vivo"}, "[11]": {"assay": "Clearance in Sprague-Dawley rat at 5 mg/kg, iv measured upto 24 hrs by LC-MS/MS analysis", "assay_type": "ADME, organism-based", "conditions": "in vivo"}, "[12]": {"assay": "Volume of distribution at steady state in Sprague-Dawley rat at 5 mg/kg, iv measured upto 24 hrs by LC-MS/MS analysis", "assay_type": "ADME, organism-based", "conditions": "in vivo, read-out: Vdss"}, "[13]": {"assay": "Volume of distribution at steady state in Sprague-Dawley rat at 2 mg/kg, iv measured upto 24 hrs by LC-MS/MS analysis", "assay_type": "ADME, organism-based", "conditions": "in vivo, read-out: Vdss"}, "[14]": {"assay": "Oral bioavailability in Sprague-Dawley rat at 10 mg/kg measured upto 24 hrs by LC-MS/MS analysis", "assay_type": "ADME, organism-based", "conditions": "in vivo"}, "[15]": {"tested_on": "SU-DHL-6", "assay": "Induction of cell cycle arrest in human SU-DHL-6 cells assessed as accumulation of cells at G0/G1 phase at 0.5 uM incubated for 24 hrs in presence of ibrutinib by PI staining based FACScan flow cytometry analysis (reference value: 55.61 %)", "assay_type": "functional"}, "[16]": {"tested_on": "SU-DHL-6", "assay": "Induction of cell cycle arrest in human SU-DHL-6 cells assessed as accumulation of cells at S phase at 0.5 uM incubated for 24 hrs in presence of ibrutinib by PI staining based flow cytometry analysis (reference value: 24.18 %)", "assay_type": "functional"}, "[17]": {"tested_on": "DOHH-2", "assay": "Induction of cell cycle arrest in human DOHH-2 cells assessed as accumulation of cells at G2/M phase at 0.5 uM incubated for 24 hrs in presence of ibrutinib by PI staining based flow cytometry analysis (reference value: 21.42 %)", "assay_type": "functional"}, "[18]": {"tested_on": "SU-DHL-6", "assay": "Induction of apoptosis in human SU-DHL-6 cells assessed as early apoptotic cells at 1.5 uM incubated for 48 hrs by annexin V-FITC and PI staining based flow cytometry analysis (reference value: 8.81 %)", "assay_type": "functional"}, "[19]": {"tested_on": "SU-DHL-6", "assay": "Induction of apoptosis in human SU-DHL-6 cells assessed as late apoptotic cells at 1.5 uM incubated for 48 hrs by annexin V-FITC and PI staining based flow cytometry analysis (reference value: 3.88 %)", "assay_type": "functional"}, "[20]": {"tested_on": "SU-DHL-6", "assay": "Induction of apoptosis in human SU-DHL-6 cells assessed as early apoptotic cells at 1.5 uM incubated for 48 hrs in presence of ibrutinib by annexin V-FITC and PI staining based flow cytometry analysis (reference value: 8.81 %)", "assay_type": "functional"}, "[21]": {"tested_on": "SU-DHL-6", "assay": "Induction of apoptosis in human SU-DHL-6 cells assessed as late apoptotic cells at 1.5 uM incubated for 48 hrs in presence of ibrutinib by annexin V-FITC and PI staining based flow cytometry analysis (reference value: 3.88 %)", "assay_type": "functional"}, "[22]": {"tested_on": "DOHH-2", "assay": "Induction of apoptosis in human DOHH-2 cells assessed as viable cells at 2 uM incubated for 48 hrs by annexin V-FITC and PI staining based flow cytometry analysis (reference value: 95.4 %)", "assay_type": "functional", "conditions": "read-out: Activity"}, "[23]": {"tested_on": "DOHH-2", "assay": "Induction of apoptosis in human DOHH-2 cells assessed as early apoptotic cells at 2 uM incubated for 48 hrs by annexin V-FITC and PI staining based flow cytometry analysis (reference value: 2.09 %)", "assay_type": "functional"}, "[24]": {"tested_on": "DOHH-2", "assay": "Induction of apoptosis in human DOHH-2 cells assessed as viable cells at 2 uM incubated for 48 hrs in presence of ibrutinib by annexin V-FITC and PI staining based flow cytometry analysis (reference value: 95.4 %)", "assay_type": "functional", "conditions": "read-out: Activity"}, "[25]": {"tested_on": "DOHH-2", "assay": "Induction of apoptosis in human DOHH-2 cells assessed as late apoptotic cells at 2 uM incubated for 48 hrs in presence of ibrutinib by annexin V-FITC and PI staining based flow cytometry analysis (reference value: 2.20 %)", "assay_type": "functional"}, "[26]": {"tested_on": "DOHH-2", "assay": "Induction of apoptosis in human DOHH-2 cells assessed as necrotic cells at 2 uM incubated for 48 hrs in presence of ibrutinib by annexin V-FITC and PI staining based flow cytometry analysis (Rvb =0.29 %)", "assay_type": "functional"}, "[27]": {"assay": "Binding affinity to N-terminal His6-tagged recombinant full length human PI3K expressed in baculovirus infected Sf21 insect cells at 10 uM in presence of [gamma-33ATP] by scintillation counting based radiometry assay relative to control"}, "[28]": {"species_on_record": "Homo sapiens", "assay": "Selectivity ratio of IC50 for N-terminal His6-tagged recombinant full length human PI3Kalpha expressed in baculovirus infected Sf21 insect cells to IC50 for N-terminal His6-tagged recombinant full length human PI3Kgamma expressed in baculovirus infected Sf21 insect cells"}, "[29]": {"species_on_record": "Homo sapiens", "assay": "Selectivity ratio of IC50 for N-terminal His6-tagged recombinant full length human PI3Kbeta expressed in baculovirus infected Sf21 insect cells to IC50 for N-terminal His6-tagged recombinant full length human PI3Kgamma expressed in baculovirus infected Sf21 insect cells"}, "[30]": {"assay": "Selectivity ratio of IC50 for human 786-O cells over expressing PI3Kbeta to IC50 for human SU-DHL-6 cells", "assay_type": "functional"}, "[31]": {"assay": "Selectivity ratio of IC50 for human SKOV-3 cells over expressing PI3Kalpha to IC50 for human SUDHL-6 cells", "assay_type": "functional"}, "[32]": {"tested_on": "SU-DHL-6", "assay": "Antitumor activity against human SU-DHL-6 cells xenografted in po dosed NOD/SCID mouse assessed as tumor volume suppression measured every 2 days", "assay_type": "functional, organism-based", "conditions": "time 2.0 day, DDE = dose-dependent effect"}, "[33]": {"tested_on": "SU-DHL-6", "assay": "Antitumor activity against human SU-DHL-6 cells xenografted in NOD/SCID mouse assessed as reduction in tumor weight at 10 mg/kg, po measured every 2 days in presence of ibrutinib", "assay_type": "functional, organism-based", "conditions": "time 2.0 day"}, "[34]": {"target": "Phosphatidylinositol 4,5-bisphosphate 3-kinase catalytic subunit gamma isoform (Homo sapiens, UniProt P48736)", "sequence (P48736 whole entry, canonical isoform)": "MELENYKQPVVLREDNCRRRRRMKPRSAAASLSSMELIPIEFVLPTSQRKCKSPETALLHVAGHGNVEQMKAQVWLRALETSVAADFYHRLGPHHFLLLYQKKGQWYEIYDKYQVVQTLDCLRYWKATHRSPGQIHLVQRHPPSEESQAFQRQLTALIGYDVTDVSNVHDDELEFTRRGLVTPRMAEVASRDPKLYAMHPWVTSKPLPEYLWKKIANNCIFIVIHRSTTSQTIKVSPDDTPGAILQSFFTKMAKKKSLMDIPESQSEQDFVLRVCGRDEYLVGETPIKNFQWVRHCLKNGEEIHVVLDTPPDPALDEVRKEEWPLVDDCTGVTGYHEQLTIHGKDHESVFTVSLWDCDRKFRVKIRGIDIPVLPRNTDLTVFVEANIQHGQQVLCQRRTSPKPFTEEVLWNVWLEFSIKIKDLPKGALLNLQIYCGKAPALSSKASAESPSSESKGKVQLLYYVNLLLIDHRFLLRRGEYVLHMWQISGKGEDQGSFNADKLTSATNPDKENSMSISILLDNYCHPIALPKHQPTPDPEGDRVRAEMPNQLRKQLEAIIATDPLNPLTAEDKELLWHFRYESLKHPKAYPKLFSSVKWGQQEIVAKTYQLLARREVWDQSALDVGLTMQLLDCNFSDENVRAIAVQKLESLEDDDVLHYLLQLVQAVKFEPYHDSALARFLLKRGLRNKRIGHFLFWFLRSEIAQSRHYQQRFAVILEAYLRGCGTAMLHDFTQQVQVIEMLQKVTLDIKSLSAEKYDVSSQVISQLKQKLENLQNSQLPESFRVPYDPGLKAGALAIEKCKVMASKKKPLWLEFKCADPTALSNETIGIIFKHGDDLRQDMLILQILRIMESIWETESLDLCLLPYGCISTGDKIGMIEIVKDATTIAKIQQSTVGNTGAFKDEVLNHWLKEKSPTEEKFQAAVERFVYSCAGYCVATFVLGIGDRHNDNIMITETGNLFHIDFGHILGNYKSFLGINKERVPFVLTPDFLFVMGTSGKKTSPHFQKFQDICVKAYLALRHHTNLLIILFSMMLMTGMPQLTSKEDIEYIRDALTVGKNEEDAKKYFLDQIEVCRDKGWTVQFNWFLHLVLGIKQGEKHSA", "assay": "Inhibition of N-terminal His6-tagged recombinant full length human PI3Kgamma expressed in baculovirus infected Sf21 insect cells incubated for 30 mins by HTRF assay"}, "[35]": {"target": "Phosphatidylinositol 4,5-bisphosphate 3-kinase catalytic subunit alpha isoform (Homo sapiens, UniProt P42336)", "sequence (P42336 whole entry, canonical isoform)": "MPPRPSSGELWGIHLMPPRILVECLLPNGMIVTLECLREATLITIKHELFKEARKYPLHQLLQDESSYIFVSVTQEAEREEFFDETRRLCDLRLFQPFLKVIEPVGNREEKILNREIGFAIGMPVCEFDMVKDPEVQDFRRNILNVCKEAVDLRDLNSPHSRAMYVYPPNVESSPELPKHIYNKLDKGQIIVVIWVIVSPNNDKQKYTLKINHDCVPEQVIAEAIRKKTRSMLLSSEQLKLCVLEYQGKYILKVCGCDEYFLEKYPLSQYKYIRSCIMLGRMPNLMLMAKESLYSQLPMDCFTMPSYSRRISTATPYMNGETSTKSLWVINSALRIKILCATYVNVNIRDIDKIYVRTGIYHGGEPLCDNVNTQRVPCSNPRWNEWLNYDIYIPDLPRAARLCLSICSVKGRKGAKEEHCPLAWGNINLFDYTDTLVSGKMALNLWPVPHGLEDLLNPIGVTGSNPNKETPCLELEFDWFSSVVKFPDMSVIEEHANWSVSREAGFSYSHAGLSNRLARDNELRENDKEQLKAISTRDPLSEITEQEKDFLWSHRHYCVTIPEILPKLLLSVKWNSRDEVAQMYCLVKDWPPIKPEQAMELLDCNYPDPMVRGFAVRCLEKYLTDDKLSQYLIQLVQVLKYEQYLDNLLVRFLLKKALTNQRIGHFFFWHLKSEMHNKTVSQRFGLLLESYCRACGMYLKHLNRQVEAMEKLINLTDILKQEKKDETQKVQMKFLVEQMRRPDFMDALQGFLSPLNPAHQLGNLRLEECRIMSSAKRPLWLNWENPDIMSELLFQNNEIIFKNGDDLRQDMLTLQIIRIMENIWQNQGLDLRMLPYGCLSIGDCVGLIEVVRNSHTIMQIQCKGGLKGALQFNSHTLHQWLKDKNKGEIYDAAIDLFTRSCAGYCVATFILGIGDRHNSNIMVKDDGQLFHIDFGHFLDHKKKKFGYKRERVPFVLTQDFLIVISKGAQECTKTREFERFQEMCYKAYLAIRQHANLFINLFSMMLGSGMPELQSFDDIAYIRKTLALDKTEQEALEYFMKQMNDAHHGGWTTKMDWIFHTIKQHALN", "assay": "Inhibition of N-terminal His6-tagged recombinant full length human PI3Kalpha expressed in baculovirus infected Sf21 insect cells incubated for 30 mins by HTRF assay"}}, "note": "Calls of active or inactive are those of the source. No cut-off for these calls is given here.", "data": [{"smiles": "C[C@H]1CC[C@@H](c2nc3cccc(Cl)c3c(=O)n2-c2cccnc2)N1c1nc(N)nc(N)c1C#N", "values": [{"measurement": "IC50", "setting": "[1]", "value": 0.06, "unit": "µM"}, {"measurement": "Cmax", "setting": "[2]", "value": 3640, "unit": "ng/mL"}, {"measurement": "Cmax", "setting": "[3]", "value": 785, "unit": "ng/mL"}, {"measurement": "Tmax", "setting": "[4]", "value": 3.33, "unit": "h"}, {"measurement": "Tmax", "setting": "[5]", "value": 4.8, "unit": "min"}, {"measurement": "AUC(0-t) at 24 h", "setting": "[6]", "value": 8610, "unit": "ng·h/mL"}, {"measurement": "AUC(0-t) at 24 h", "setting": "[7]", "value": 6810, "unit": "ng·h/mL"}, {"measurement": "AUC(0-t) at 24 h", "setting": "[8]", "value": 2930, "unit": "ng·h/mL"}, {"measurement": "half-life", "setting": "[9]", "value": 9.46, "unit": "h"}, {"measurement": "CL/F", "setting": "[10]", "value": 13.2, "unit": "mL/min/kg"}, {"measurement": "clearance", "setting": "[11]", "value": 12.5, "unit": "mL/min/kg"}, {"measurement": "Vd", "setting": "[12]", "value": 2.86, "unit": "L/kg"}, {"measurement": "Vd", "setting": "[13]", "value": 1.66, "unit": "L/kg"}, {"measurement": "bioavailability", "setting": "[14]", "value": 57, "unit": "%"}, {"measurement": "Activity", "setting": "[15]", "value": 79.73, "unit": "%"}, {"measurement": "Activity", "setting": "[16]", "value": 15.65, "unit": "%"}, {"measurement": "Activity", "setting": "[17]", "value": 20.03, "unit": "%"}, {"measurement": "Activity", "setting": "[18]", "value": 17.7, "unit": "%"}, {"measurement": "Activity", "setting": "[19]", "value": 7.43, "unit": "%"}, {"measurement": "Activity", "setting": "[20]", "value": 34.5, "unit": "%"}, {"measurement": "Activity", "setting": "[21]", "value": 18.1, "unit": "%"}, {"measurement": "viability at 2 µM", "setting": "[22]", "value": 60.6, "unit": "%"}, {"measurement": "Activity", "setting": "[23]", "value": 20.4, "unit": "%"}, {"measurement": "viability at 2 µM", "setting": "[24]", "value": 23.5, "unit": "%"}, {"measurement": "Activity", "setting": "[25]", "value": 25.8, "unit": "%"}, {"measurement": "Activity", "setting": "[26]", "value": 1.88, "unit": "%"}, {"measurement": "Activity", "setting": "[27]", "value": "Active"}, {"measurement": "Ratio IC50", "setting": "[28]", "value": 794}, {"measurement": "Ratio IC50", "setting": "[29]", "value": 84}, {"measurement": "Selectivity ratio", "setting": "[30]", "value": 142}, {"measurement": "Selectivity ratio", "setting": "[31]", "value": 107}, {"measurement": "Activity", "setting": "[32]", "value": "Dde"}, {"measurement": "Activity", "setting": "[33]", "value": "Active"}, {"measurement": "IC50", "setting": "[34]", "value": 16, "unit": "µM"}, {"measurement": "IC50", "setting": "[35]", "value": 794, "unit": "µM"}]}]}
